From patent US9758505B2, “3-(indol-3-yl)-pyridine derivatives, pharmaceutical compositions and methods for use” (ITEOS THERAPEUTICS, priority 2014, dated 2017) come the findings set out here.

pIC50: −log10 of the molar value.

What is called pIC50 is the negative decadic logarithm of the IC50, by convention in mol/L. Read a low pIC50 as a large IC50.

human TDO2, sequence (P48775 whole entry): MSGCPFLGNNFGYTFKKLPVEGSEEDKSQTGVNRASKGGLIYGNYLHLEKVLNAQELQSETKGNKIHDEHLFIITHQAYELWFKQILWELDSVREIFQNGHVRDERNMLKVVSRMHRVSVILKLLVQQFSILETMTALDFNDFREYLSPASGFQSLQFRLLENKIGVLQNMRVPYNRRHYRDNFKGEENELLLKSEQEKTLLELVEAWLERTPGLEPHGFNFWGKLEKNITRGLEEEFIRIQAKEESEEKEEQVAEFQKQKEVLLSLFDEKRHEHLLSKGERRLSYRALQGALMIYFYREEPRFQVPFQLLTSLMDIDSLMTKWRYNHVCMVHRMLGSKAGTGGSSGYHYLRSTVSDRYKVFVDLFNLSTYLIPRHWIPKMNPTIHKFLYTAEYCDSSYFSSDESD

For the experiment, the target named is human TDO2 (Homo sapiens (Human), UniProt P48775). In words: Cellular assay for TDO2 activity, A172 cells naturally expressing hTDO2. The settings on record: human glioblastoma A172 cells, overnight incubation, kynurenine in supernatant. It is filed as cell-based. The protocol:
A172 is a cell line derived from human brain glioblastoma cells.
To determine TDO, the cells were incubated overnight at 37° C. at 5% CO2 in IMDM (Invitrogen) supplemented with 2% FBS and 2% penicillin/streptomycin in the presence of the compounds of the present invention, at different concentrations.
The plates were then centrifuged 5 min at 1000 rpm, and 100 μL of the supernatant were collected in a conical plate, 30 uL of TCA 30% were added and a further centrifugated at 3000×g for 10 minutes. 100 μL of the supernatant were collected in a flat bottomed plate and 100 μL of 2% (w/v) 4-(dimethylamino)-benzaldehyde in acetic acid and incubated for 5 min at room temperature. Kynurenine concentrations were determined by measuring the absorbance at 480 nm. A standard curve was made with pure kynurenine. The TDO activity was measured as described above using ten serial concentrations of the compounds of the present invention. Data were fitted using the Prism™ software (GraphPad Software, Inc.) using standard software configurations.
`CS(=O)(=O)NC1CCN(c2ccc(-c3c[nH]c4ccccc34)cn2)CC1` [Example 79, N-(1-(5-(1H-indol-3-yl)pyridin-2-yl)piperidin-4-yl)methanesulfonamide] gave a pIC50 of 5.92.

Consider `COCCS(=O)(=O)NC1CCN(c2ccc(-c3c[nH]c4cc(F)ccc34)cn2)CC1` [Example 57, N-(1-(5-(6-fluoro-1H-indol-3-yl)pyridin-2-yl)piperidin-4-yl)-2-methoxyethanesulfonamide], for which the pIC50 was 5.85.

In turn, `O=C1Cc2ncc(-c3c[nH]c4cc(F)ccc34)cc2N1` [Example 76, 6-(6-fluoro-1H-indol-3-yl)-1H-pyrrolo[3,2-b]pyridin-2(3H)-one] had a pIC50 of 5.39.

The compound `O=S(=O)(CCN1CCOCC1)NC1CCN(c2ccc(-c3c[nH]c4cc(F)ccc34)cn2)CC1` [Example 59, N-(1-(5-(6-fluoro-1H-indol-3-yl)pyridin-2-yl)piperidin-4-yl)-2-morpholinoethanesulfonamide] had a pIC50 of 5.85.

In turn, `CN(CCNS(C)(=O)=O)S(=O)(=O)c1ccc(-c2c[nH]c3cc(F)ccc23)cn1` [Example 91, 5-(6-fluoro-1H-indol-3-yl)-N-methyl-N-(2-(methylsulfonamido)ethyl)pyridine-2-sulfonamide] gave a pIC50 of 6.57.

`CC(C)[C@H](N)C(=O)Nc1ccc(-c2c[nH]c3cc(F)ccc23)cn1` [Example 38, (S)-2-amino-N-(5-(6-fluoro-1H-indol-3-yl)pyridin-2-yl)-3-methylbutanamide] showed a pIC50 of 6.13.

Turning to `CN(C)C(=O)Nc1ccc(-c2c[nH]c3cc(F)ccc23)cn1` [Example 65, 3-(5-(6-fluoro-1H-indol-3-yl)pyridin-2-yl)-1,1-dimethylurea], the pIC50 was 6.09.

`O=C1CNCCN1c1ccc(-c2c[nH]c3cc(F)ccc23)cn1` [Example 83, 1-(5-(6-fluoro-1H-indol-3-yl)pyridin-2-yl)piperazin-2-one] showed a pIC50 of 5.82.

Turning to `O=S(=O)(c1ccc(-c2c[nH]c3ccc(F)cc23)cn1)N1CCNCC1` [Example 95, 5-fluoro-3-(6-(piperazin-1-ylsulfonyl)pyridin-3-yl)-1H-indole], the pIC50 is 6.43.

Consider `Cc1ccc2[nH]cc(-c3ccc(S(=O)(=O)N4CCNCC4)nc3)c2c1` [Example 96, 5-methyl-3-(6-(piperazin-1-ylsulfonyl)pyridin-3-yl)-1H-indole], for which the pIC50 is 6.28.

`O=S(=O)(c1ccc(-c2c[nH]c3cc(F)ccc23)cn1)N1CCNCC1` [Example 87, 6-fluoro-3-(6-(piperazin-1-ylsulfonyl)pyridin-3-yl)-1H-indole] showed a pIC50 of 6.64.

`N#Cc1ccc2[nH]cc(-c3ccc(S(=O)(=O)N4CCNCC4)nc3)c2c1` [Example 97, 3-(6-(piperazin-1-ylsulfonyl)pyridin-3-yl)-1H-indole-5-carbonitrile] showed a pIC50 of 5.62.

For the compound `CS(=O)(=O)NC1CCN(c2ccc(-c3c[nH]c4ccc(F)cc34)cn2)CC1` [Example 81, N-(1-(5-(5-fluoro-1H-indol-3-yl)pyridin-2-yl)piperidin-4-yl)methanesulfonamide], the negative logarithm of the IC50 (pIC50) is 5.70.

In the case of `CS(=O)(=O)NCCNS(=O)(=O)c1ccc(-c2c[nH]c3cc(F)ccc23)cn1` [Example 88, 5-(6-fluoro-1H-indol-3-yl)-N-(2-(methylsulfonamido)ethyl)pyridine-2-sulfonamide], the pIC50 is 6.46.

In the case of `CCOC(=O)Cn1c(=O)[nH]c2cc(-c3c[nH]c4cc(F)ccc34)cnc21` [Example 86, ethyl 2-(6-(6-fluoro-1H-indol-3-yl)-2-oxo-1H-imidazo[4,5-b]pyridin-3(2H)-yl)acetate], the pIC50 is 6.21.

Compound `CC(=O)NCCNS(=O)(=O)c1ccc(-c2c[nH]c3cc(F)ccc23)cn1` [Example 92, N-(2-(5-(6-fluoro-1H-indol-3-yl)pyridine-2-sulfonamido)ethyl)acetamide] gave a pIC50 of 6.48.

For the compound `CS(=O)(=O)N1CCN(S(=O)(=O)c2ccc(-c3c[nH]c4cc(F)ccc34)cn2)CC1` [Example 90, 6-fluoro-3-(6-((4-(methylsulfonyl)piperazin-1-yl)sulfonyl)pyridin-3-yl)-1H-indole], the pIC50 is 5.85.
